“And” between values parts separate entries of the source, which are not always exact repeats. Equal entries are not always repeated. Toxic doses and inconclusive results are not listed. How the source made its calls: active means survival T/C of 150% or more; inactive means T/C below 125% in these data.
Tested on: P388 leukemia ip, CD2F1 mice, survival T/C
Assay: NCI In Vivo Anticancer Drug Screen. Data for tumor model P388 Leukemia (intraperitoneal) in CD2F1 (CDF1) mice
Conditions: endpoint: median survival time, higher = longer survival
Procedure, shortened: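 Mice carrying the transplanted tumor received test compound or vehicle. Survival was recorded in each group, and the value is the treated-group measurement divided by that of the vehicle-treated control group.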

[1] = dose: 25.0 mg/kg/injection, schedule: Q01DX009 (ip), vehicle: saline
[2] = dose: 50.0 mg/kg/injection, schedule: Q01DX009 (ip), vehicle: saline with Tween-80
[3] = dose: 50.0 mg/kg/injection, schedule: Q01DX009 (ip), vehicle: saline
[4] = dose: 100.0 mg/kg/injection, schedule: Q01DX009 (ip), vehicle: saline with Tween-80
[5] = dose: 100.0 mg/kg/injection, schedule: Q01DX009 (ip), vehicle: saline
[6] = dose: 200.0 mg/kg/injection, schedule: Q01DX009 (ip), vehicle: saline
[7] = dose: 100.0 mg/kg/injection, schedule: Q04DX002 (ip), vehicle: saline with Tween-80
[8] = dose: 200.0 mg/kg/injection, schedule: Q04DX002 (ip), vehicle: saline with Tween-80
[9] = dose: 400.0 mg/kg/injection, schedule: Q04DX002 (ip), vehicle: saline with Tween-80
[10] = dose: 50.0 mg/kg/injection, schedule: Q01DX005 (ip), vehicle: Klucel (hydroxypropylcellulose) (HPC)
[11] = dose: 100.0 mg/kg/injection, schedule: Q01DX005 (ip), vehicle: Klucel (hydroxypropylcellulose) (HPC)
[12] = dose: 200.0 mg/kg/injection, schedule: Q01DX005 (ip), vehicle: Klucel (hydroxypropylcellulose) (HPC)
[13] = dose: 50.0 mg/kg/injection, schedule: Q01DX005 (ip), vehicle: saline with Tween-80
[14] = dose: 100.0 mg/kg/injection, schedule: Q01DX005 (ip), vehicle: saline with Tween-80
[15] = dose: 50.0 mg/kg/injection, schedule: Q01DX009 (ip), vehicle: Klucel (hydroxypropylcellulose) (HPC)
[16] = dose: 100.0 mg/kg/injection, schedule: Q01DX009 (ip), vehicle: Klucel (hydroxypropylcellulose) (HPC)
[17] = dose: 200.0 mg/kg/injection, schedule: Q01DX009 (ip), vehicle: Klucel (hydroxypropylcellulose) (HPC)
[18] = dose: 100.0 mg/kg/injection, schedule: Q01DX001 (ip), vehicle: saline with Tween-80
[19] = dose: 200.0 mg/kg/injection, schedule: Q01DX001 (ip), vehicle: saline with Tween-80
[20] = dose: 400.0 mg/kg/injection, schedule: Q01DX001 (ip), vehicle: saline with Tween-80
[21] = dose: 200.0 mg/kg/injection, schedule: Q01DX009 (ip), vehicle: saline with Tween-80

Measured: T/C

O=C1NC(c2cccc3c2OCO3)N=C2Oc3ccccc3C=C12 (centres undefined)
inactive: [1] 107 % of control and 87 % of control | [2] 118 % of control | [3] 100 % of control and 107 % of control | [4] 120 % of control | [5] 106 % of control and 117 % of control | [6] 106 % of control and 117 % of control

O=S(=O)(O)O.[Co+3].[Co+3].[NH2-].[NH2-].[NH2-].[NH2-].[NH2-].[NH2-].[NH2-].[NH2-].[NH2-].[NH2-].[O-][O-]
inactive: [1] 96 % of control

NC(=O)C1=C(C(=O)O)CCC1
inactive: dose: 25.0 mg/kg/injection, schedule: Q01DX009 (ip), vehicle: distilled water + Tween-80 99 % of control | dose: 50.0 mg/kg/injection, schedule: Q01DX009 (ip), vehicle: distilled water + Tween-80 100 % of control | dose: 100.0 mg/kg/injection, schedule: Q01DX009 (ip), vehicle: distilled water + Tween-80 98 % of control | dose: 200.0 mg/kg/injection, schedule: Q01DX009 (ip), vehicle: distilled water + Tween-80 96 % of control | dose: 400.0 mg/kg/injection, schedule: Q01DX009 (ip), vehicle: distilled water + Tween-80 92 % of control

CCOC(=O)Oc1ccc(CC([NH-])C(=O)O)cc1.CCOC(=O)Oc1ccc(CC([NH-])C(=O)O)cc1.[Cu+2] (centres undefined)
inactive: dose: 6.25 mg/kg/injection, schedule: Q01DX009 (ip), vehicle: saline 100 % of control | dose: 12.5 mg/kg/injection, schedule: Q01DX009 (ip), vehicle: saline 100 % of control | [1] 100 % of control

CCOC(=O)N(C)C
inactive: [1] 89 % of control | [3] 91 % of control | [5] 99 % of control | [6] 105 % of control

CCOC(=O)C1C(=O)N2C(=O)C(NC(C)=O)=C(O)C2C1c1ccc(OC)cc1 (centres undefined)
inactive: [7] 100 % of control | [8] 100 % of control | [9] 98 % of control

CCCCc1ccc(-n2c(C)nc3[nH]cc(C)c3c2=N)cc1
inactive: [10] 96 % of control | [11] 102 % of control | [12] 97 % of control

CCC1CN2CCC1CC2C(O)c1ccnc2ccc(OC)cc12 (centres undefined)
inactive: [13] 100 % of control | [14] 98 % of control

CCN(CC)CCNc1cccc2oc3ccc(O)cc3c(=O)c12
inactive: [13] 108 % of control | [14] 105 % of control | dose: 200.0 mg/kg/injection, schedule: Q01DX005 (ip), vehicle: saline with Tween-80 108 % of control

CC1=C(/C=C/C(C)=C/C=C/C(C)=C/C(=O)Nc2ccc(O)cc2)C(C)(C)CCC1
inactive: dose: 25.0 mg/kg/injection, schedule: Q01DX005 (ip), vehicle: saline with Tween-80 97 % of control | [13] 90 % of control

COc1cc(/C=N/NC(=O)COc2ccccc2)ccc1O
inactive: dose: 60.0 mg/kg/injection, schedule: Q01DX005 (ip), vehicle: saline with Tween-80 100 % of control | dose: 120.0 mg/kg/injection, schedule: Q01DX005 (ip), vehicle: saline with Tween-80 103 % of control | dose: 240.0 mg/kg/injection, schedule: Q01DX005 (ip), vehicle: saline with Tween-80 98 % of control

COC(=O)C1(C(=O)OC)ON1C(C)(C)C (centres undefined)
inactive: [10] 100 % of control | [11] 96 % of control | [12] 97 % of control

CN(C)CC/C=C1/c2ccccc2C=Nc2ccc(Cl)cc21
inactive: dose: 6.25 mg/kg/injection, schedule: Q01DX009 (ip), vehicle: Klucel (hydroxypropylcellulose) (HPC) 116 % of control | dose: 12.5 mg/kg/injection, schedule: Q01DX009 (ip), vehicle: Klucel (hydroxypropylcellulose) (HPC) 108 % of control | dose: 25.0 mg/kg/injection, schedule: Q01DX009 (ip), vehicle: Klucel (hydroxypropylcellulose) (HPC) 99 % of control

Cc1cc(O)c([N+](=O)[O-])c(O)c1
inactive: [3] 96 % of control | [5] 103 % of control | [6] 100 % of control

CSc1nsc(SC)c1-c1ccc(Cl)cc1
inactive: [15] 99 % of control | [16] 100 % of control | [17] 92 % of control

CC(C)(OCc1ccccc1)c1ccccc1[P+](C)(c1ccccc1)c1ccccc1
inactive: dose: 100.0 mg/kg/injection, schedule: Q01DX001 (ip), vehicle: Klucel (hydroxypropylcellulose) (HPC) 109 % of control | dose: 200.0 mg/kg/injection, schedule: Q01DX001 (ip), vehicle: Klucel (hydroxypropylcellulose) (HPC) 113 % of control

COC(=O)Cn1/c(=N\N=C\c2ccccc2)sc2ccccc21
inactive: [18] 90 % of control | [19] 87 % of control | [20] 88 % of control

CNc1nncc(=O)[nH]1
inactive: [15] 107 % of control | [16] 107 % of control | [17] 99 % of control

CCCCCC[N+]1(CC)CCCC1
inactive: dose: 0.78 mg/kg/injection, schedule: Q01DX009 (ip), vehicle: saline 97 % of control | dose: 1.56 mg/kg/injection, schedule: Q01DX009 (ip), vehicle: saline 113 % of control | dose: 3.12 mg/kg/injection, schedule: Q01DX009 (ip), vehicle: saline 98 % of control and 100 % of control

CC1(O)c2ccccc2C(C)(O)c2c1ccc1ccccc21 (centres undefined)
inactive: [13] 95 % of control | [14] 87 % of control

[CH3][Bi]1[O]C(=O)c2ccccc2[S]1
inactive: dose: 25.0 mg/kg/injection, schedule: Q01DX005 (ip), vehicle: Klucel (hydroxypropylcellulose) (HPC) 99 % of control and 102 % of control and 97 % of control

CC(=O)OC1CCC2(C)C(=CCC3C2CCC2(C)C3CC3C(c4ccccc4)=NC(c4ccccc4)C32C(C)=O)C1 (centres undefined)
inactive: [18] 93 % of control | [7] 108 % of control | [19] 91 % of control | [8] 100 % of control | [20] 90 % of control | [9] 105 % of control

O=[N+]([O-])C1=NOCC1
inactive: dose: 50.0 mg/kg/injection, schedule: Q01DX005 (ip), vehicle: suspension in saline 95 % of control | dose: 100.0 mg/kg/injection, schedule: Q01DX005 (ip), vehicle: suspension in saline 95 % of control

COc1ccc(N=C=S)cc1N=C=S
inactive: dose: 6.25 mg/kg/injection, schedule: Q04DX003 (ip), vehicle: saline with Tween-80 95 % of control | dose: 12.5 mg/kg/injection, schedule: Q04DX003 (ip), vehicle: saline with Tween-80 104 % of control | dose: 25.0 mg/kg/injection, schedule: Q04DX003 (ip), vehicle: saline with Tween-80 104 % of control

S=C(Nc1ccc(Cl)cc1)SC1CCCCC1
inactive: [1] 100 % of control | [3] 102 % of control and 108 % of control | [5] 118 % of control and 119 % of control | [6] 124 % of control

OC1(c2ccc(F)cc2)CCNCC1
inactive: dose: 60.0 mg/kg/injection, schedule: Q01DX005 (ip), vehicle: Klucel (hydroxypropylcellulose) (HPC) 104 % of control | dose: 120.0 mg/kg/injection, schedule: Q01DX005 (ip), vehicle: Klucel (hydroxypropylcellulose) (HPC) 92 % of control

Cc1ccc2ccccc2c1NS(=O)(=O)c1ccccc1
inactive: [18] 95 % of control | [19] 95 % of control | [20] 91 % of control

CCOC(=O)N=C=S
inactive: [2] 108 % of control | [4] 108 % of control

CS(=O)(=O)OCCCCO
inactive: [4] 100 % of control | dose: 100.0 mg/kg/injection, schedule: Q04DX003 (ip), vehicle: saline with Tween-80 100 % of control | [21] 110 % of control | dose: 200.0 mg/kg/injection, schedule: Q04DX003 (ip), vehicle: saline with Tween-80 100 % of control | dose: 400.0 mg/kg/injection, schedule: Q01DX009 (ip), vehicle: saline with Tween-80 110 % of control | dose: 400.0 mg/kg/injection, schedule: Q04DX003 (ip), vehicle: saline with Tween-80 91 % of control

COC(=O)/C(CC(=O)O)=C(\c1ccc2c(c1)OCO2)c1cc(OC)c(OC)c(OC)c1
inactive: dose: 100.0 mg/kg/injection, schedule: Q04DX002 (ip), vehicle: Klucel (hydroxypropylcellulose) (HPC) 100 % of control | dose: 200.0 mg/kg/injection, schedule: Q04DX002 (ip), vehicle: Klucel (hydroxypropylcellulose) (HPC) 103 % of control | dose: 400.0 mg/kg/injection, schedule: Q04DX002 (ip), vehicle: Klucel (hydroxypropylcellulose) (HPC) 100 % of control

CCCCCC#CC(=O)OC
inactive: dose: 25.0 mg/kg/injection, schedule: Q01DX009 (ip), vehicle: saline with Tween-80 109 % of control | [2] 109 % of control | [4] 104 % of control | [21] 118 % of control

CCN(CC)C(=Nc1ccccc1)NC#N
inactive: [10] 110 % of control | [11] 105 % of control | [12] 96 % of control

— PubChem BioAssay AID330 (DTP/NCI, 2004)
